Experimental data reported in patent publication US20090191636A1, “Method of Producing Transgenic Graminaceous Cells and Plants” (priority 2006, published 2009).

Legend:
[1] = system: wheat embryos derived from mature dried grain of the cultivar Bobwhite; experiment: Effect of D-amino acids on regeneration of wheat from embryos of mature dried grain (Bobwhite); type: cell-based, Triticum aestivum; details: for proportion (%) of explants regenerating after 3 weeks, Average / proportion (%) of explants regenerating after 3 weeks, Experiment number 1 / proportion (%) of explants regenerating after 3 weeks, Experiment number 2 / proportion (%) of explants regenerating after 3 weeks, Experiment number 3: n = 20
Procedure: (§1) A range of concentrations of the D-amino acids D-serine and D-alanine were tested for effects on wheat regeneration and germination from embryos derived from mature dried grain of the cultivar Bobwhite.

[2] = system: wheat mature dried grain of the cultivar Bobwhite; experiment: Effect of D-amino acids on germination of wheat mature dried grain (Bobwhite); type: in vivo, Triticum aestivum; details: n = 15
Procedure: as §1

[3] = system: wheat embryos derived from mature dried grain of the cultivar Ventura; experiment: Effect of D-amino acids on regeneration of wheat from embryos of mature dried grain (Ventura); type: cell-based; details: n = 20
[4] = system: wheat mature dried grain of the cultivar Ventura; experiment: Effect of D-amino acids on germination of wheat mature dried grain (Ventura); type: in vivo; details: n = 15
Procedure: [Worded in the source for another variant; this variant is reported under the same test.] as §1

## C[C@@H](N)C(=O)O [D-alanine]
[1]; 0.5 mM
  proportion (%) of explants regenerating after 3 weeks, Average: 20%
  proportion (%) of explants regenerating after 3 weeks, Experiment number 1: 30%
  proportion (%) of explants regenerating after 3 weeks, Experiment number 2: 30%
  proportion (%) of explants regenerating after 3 weeks, Experiment number 3: 0%
[1]; 1 mM
  proportion (%) of explants regenerating after 3 weeks, Average: 20%
  proportion (%) of explants regenerating after 3 weeks, Experiment number 1: 35%
  proportion (%) of explants regenerating after 3 weeks, Experiment number 2: 21%
  proportion (%) of explants regenerating after 3 weeks, Experiment number 3: 5%
[1]; 3 mM
  proportion (%) of explants regenerating after 3 weeks, Average: 15%
  proportion (%) of explants regenerating after 3 weeks, Experiment number 1: 20%
  proportion (%) of explants regenerating after 3 weeks, Experiment number 2: 25%
  proportion (%) of explants regenerating after 3 weeks, Experiment number 3: 0%
[1]; 5 mM
  proportion (%) of explants regenerating after 3 weeks, Average: 3%
  proportion (%) of explants regenerating after 3 weeks, Experiment number 1: 5%
  proportion (%) of explants regenerating after 3 weeks, Experiment number 2: 5%
  proportion (%) of explants regenerating after 3 weeks, Experiment number 3: 0%
[1]; 10 mM
  proportion (%) of explants regenerating after 3 weeks, Average: 0%
  proportion (%) of explants regenerating after 3 weeks, Experiment number 1: 0%
  proportion (%) of explants regenerating after 3 weeks, Experiment number 2: 0%
  proportion (%) of explants regenerating after 3 weeks, Experiment number 3: 0%
[1]; regeneration and germination (Tables 4 and 5)
  levels that reduced the regeneration and germination of wheat plants: > 5 mM
[2]; 0.5 mM
  proportion (%) of explants germinated after 1 week, Average: 77%
  proportion (%) of explants germinated after 1 week, Experiment Number 1: 55%
  proportion (%) of explants germinated after 1 week, Experiment Number 2: 75%
  proportion (%) of explants germinated after 1 week, Experiment Number 3: 100%
[2]; 1 mM
  proportion (%) of explants germinated after 1 week, Average: 77%
  proportion (%) of explants germinated after 1 week, Experiment Number 1: 70%
  proportion (%) of explants germinated after 1 week, Experiment Number 2: 80%
  proportion (%) of explants germinated after 1 week, Experiment Number 3: 80%
[2]; 3 mM
  proportion (%) of explants germinated after 1 week, Average: 73%
  proportion (%) of explants germinated after 1 week, Experiment Number 1: 70%
  proportion (%) of explants germinated after 1 week, Experiment Number 2: 70%
  proportion (%) of explants germinated after 1 week, Experiment Number 3: 80%
[2]; 5 mM
  proportion (%) of explants germinated after 1 week, Average: 62%
  proportion (%) of explants germinated after 1 week, Experiment Number 1: 50%
  proportion (%) of explants germinated after 1 week, Experiment Number 2: 85%
  proportion (%) of explants germinated after 1 week, Experiment Number 3: 50%
[2]; 10 mM
  proportion (%) of explants germinated after 1 week, Average: 28%
  proportion (%) of explants germinated after 1 week, Experiment Number 1: 10%
  proportion (%) of explants germinated after 1 week, Experiment Number 2: 35%
  proportion (%) of explants germinated after 1 week, Experiment Number 3: 40%
[3]; 0.5 mM
  proportion (%) of explants regenerating after 3 weeks, Average: 8%
  proportion (%) of explants regenerating after 3 weeks, Experiment number 1: 10%
  proportion (%) of explants regenerating after 3 weeks, Experiment number 2: 10%
  proportion (%) of explants regenerating after 3 weeks, Experiment number 3: 5%
[3]; 1 mM
  proportion (%) of explants regenerating after 3 weeks, Average: 5%
  proportion (%) of explants regenerating after 3 weeks, Experiment number 1: 0%
  proportion (%) of explants regenerating after 3 weeks, Experiment number 2: 10%
  proportion (%) of explants regenerating after 3 weeks, Experiment number 3: 5%
[3]; 3 mM
  proportion (%) of explants regenerating after 3 weeks, Average: 7%
  proportion (%) of explants regenerating after 3 weeks, Experiment number 1: 10%
  proportion (%) of explants regenerating after 3 weeks, Experiment number 2: 10%
  proportion (%) of explants regenerating after 3 weeks, Experiment number 3: 0%
[3]; 5 mM
  proportion (%) of explants regenerating after 3 weeks, Average: 3%
  proportion (%) of explants regenerating after 3 weeks, Experiment number 1: 5%
  proportion (%) of explants regenerating after 3 weeks, Experiment number 2: 5%
  proportion (%) of explants regenerating after 3 weeks, Experiment number 3: 0%
[3]; 10 mM
  proportion (%) of explants regenerating after 3 weeks, Average: 0%
  proportion (%) of explants regenerating after 3 weeks, Experiment number 1: 0%
  proportion (%) of explants regenerating after 3 weeks, Experiment number 2: 0%
  proportion (%) of explants regenerating after 3 weeks, Experiment number 3: 0%
[3]; 20 mM
  proportion (%) of explants regenerating after 3 weeks, Average: 0%
  proportion (%) of explants regenerating after 3 weeks, Experiment number 1: 0%
  proportion (%) of explants regenerating after 3 weeks, Experiment number 2: 0%
  proportion (%) of explants regenerating after 3 weeks, Experiment number 3: 0%
[4]; 0.5 mM
  germination: proportion (%) of explants regenerating after 1 week, Average: 73%
  germination: proportion (%) of explants regenerating after 1 week, Experiment number 1: 65%
  germination: proportion (%) of explants regenerating after 1 week, Experiment number 2: 65%
  germination: proportion (%) of explants regenerating after 1 week, Experiment number 3: 90%
[4]; 1 mM
  germination: proportion (%) of explants regenerating after 1 week, Average: 75%
  germination: proportion (%) of explants regenerating after 1 week, Experiment number 1: 75%
  germination: proportion (%) of explants regenerating after 1 week, Experiment number 2: 75%
  germination: proportion (%) of explants regenerating after 1 week, Experiment number 3: 75%
[4]; 3 mM
  germination: proportion (%) of explants regenerating after 1 week, Average: 75%
  germination: proportion (%) of explants regenerating after 1 week, Experiment number 1: 80%
  germination: proportion (%) of explants regenerating after 1 week, Experiment number 2: 65%
  germination: proportion (%) of explants regenerating after 1 week, Experiment number 3: 80%
[4]; 5 mM
  germination: proportion (%) of explants regenerating after 1 week, Average: 67%
  germination: proportion (%) of explants regenerating after 1 week, Experiment number 1: 70%
  germination: proportion (%) of explants regenerating after 1 week, Experiment number 2: 55%
  germination: proportion (%) of explants regenerating after 1 week, Experiment number 3: 75%
[4]; 10 mM
  germination: proportion (%) of explants regenerating after 1 week, Average: 47%
  germination: proportion (%) of explants regenerating after 1 week, Experiment number 1: 65%
  germination: proportion (%) of explants regenerating after 1 week, Experiment number 2: 30%
  germination: proportion (%) of explants regenerating after 1 week, Experiment number 3: 45%
[4]; 20 mM
  germination: proportion (%) of explants regenerating after 1 week, Average: 5%
  germination: proportion (%) of explants regenerating after 1 week, Experiment number 1: 5%
  germination: proportion (%) of explants regenerating after 1 week, Experiment number 2: 25%
  germination: proportion (%) of explants regenerating after 1 week, Experiment number 3: 40%
